Data: the CheMixHub ionic liquid set

Test: xn = mol fraction of the nth substance listed

CCCCCC[n+]1ccn(C)c1.O=S(=O)([N-]S(=O)(=O)C(F)(F)F)C(F)(F)F + C1CCOC1
298.15 K, 100 kPa
Conditions | electrical conductivity [S/m]
x1 = 0.0649 | 0.9
x1 = 0.09702 | 1.1
x1 = 0.1393 | 1
x1 = 0.194 | 1.3
x1 = 0.2742 | 0.9

CCCCCC[n+]1ccn(C)c1.[Br-] + C[NH2+]CCC=C1c2ccccc2CCc2ccccc21.[Cl-] + O
viscosity [mPa·s], 100 kPa
Conditions | 288.15 K | 298.15 K | 308.15 K | 318.15 K
x2 = 0, x1 = 0.0001802 | 1.159 | 0.926 | 0.762 | 0.645
x2 = 0, x1 = 0.0007203 | 1.165 | 0.934 | 0.77 | 0.643
x2 = 0, x1 = 0.00126 | 1.171 | 0.942 | 0.776 | 0.66

CCCCCC[n+]1ccn(C)c1.O=S(=O)([N-]S(=O)(=O)C(F)(F)F)C(F)(F)F + O
Conditions | electrical conductivity [S/m]
295.15 K, 101 kPa, x2 = 0.233 | 0.29

OCCCCCO + C[N+](C)(C)CCO.O=S(=O)([N-]S(=O)(=O)C(F)(F)F)C(F)(F)F
Conditions | viscosity [mPa·s]
333.15 K, 101 kPa, x1 = 1 | 20.3

Cn1ccnc1 + CC(=O)[O-].CC[n+]1ccn(C)c1 + CCOC(C)=O
298.15 K, 101 kPa
Conditions | electrical conductivity [S/m] | viscosity [mPa·s]
x2 = 0, x1 = 0.5 | – | 0.93
x2 = 0.09996, x1 = 0.45 | 0.259 | 1.32
x2 = 0.2001, x1 = 0.4 | 0.444 | 2.05
x2 = 0.3, x1 = 0.35 | 0.61 | 3.17
x2 = 0.3995, x1 = 0.3003 | 0.724 | 5.06
x2 = 0.5003, x1 = 0.2498 | 0.795 | 7.59
x2 = 0.598, x1 = 0.201 | 0.776 | 12.8
x2 = 0.7028, x1 = 0.1486 | 0.697 | 21.4
x2 = 0.8002, x1 = 0.09992 | 0.578 | 37.1
x2 = 0.8978, x1 = 0.0511 | 0.452 | 67.4

CCCC[n+]1ccn(C)c1.COS(=O)(=O)[O-] + CCCC[n+]1ccn(C)c1.F[B-](F)(F)F
101 kPa
Conditions | viscosity [mPa·s]
298.15 K, x2 = 0.4358 | 161.7
298.15 K, x2 = 0.5118 | 158.9
298.15 K, x2 = 0.6026 | 146.2
298.15 K, x2 = 0.9447 | 110.8
299.15 K, x2 = 0 | 202.9
299.15 K, x2 = 0.1209 | 181.8
301.15 K, x2 = 0.1209 | 162.8
301.15 K, x2 = 0.2142 | 158.7
301.15 K, x2 = 0.4358 | 136.4
301.15 K, x2 = 0.6934 | 117
301.15 K, x2 = 0.7813 | 109.5
302.15 K, x2 = 0 | 171.4
302.15 K, x2 = 0.3057 | 144.1
302.15 K, x2 = 0.5412 | 122.2
302.15 K, x2 = 0.6026 | 117.5
302.15 K, x2 = 0.648 | 113.8
303.15 K, x2 = 0.406 | 127.9
303.15 K, x2 = 0.5118 | 118.6
304.15 K, x2 = 0.3057 | 129.6
304.15 K, x2 = 0.5412 | 109.7
304.15 K, x2 = 0.6934 | 99.9
305.15 K, x2 = 0.1209 | 131.1
305.15 K, x2 = 0.2142 | 127.8
305.15 K, x2 = 0.6026 | 100.3
305.15 K, x2 = 0.9005 | 82.8
305.15 K, x2 = 0.9447 | 78.2
307.15 K, x2 = 0.4358 | 99.4
307.15 K, x2 = 0.6026 | 90.9
308.15 K, x2 = 0.1209 | 112.4
308.15 K, x2 = 0.406 | 98.7
308.15 K, x2 = 0.9447 | 68

CCCC[N+](CCCC)(CCCC)CCCC.[Br-] + CCCCCCCCCCCCOS(=O)(=O)[O-].[Na+] + O
viscosity [mPa·s], 100 kPa
Conditions | x2 = 1.81e-06, x1 = 0.0001802 | x2 = 3.61e-06, x1 = 0.0001802 | x2 = 5.42e-06, x1 = 0.0001802 | x2 = 7.23e-06, x1 = 0.0001802 | x2 = 9.04e-06, x1 = 0.0001802 | x2 = 1.084e-05, x1 = 0.0001802 | x2 = 1.265e-05, x1 = 0.0001802 | x2 = 1.446e-05, x1 = 0.0001802 | x2 = 1.627e-05, x1 = 0.0001802 | x2 = 1.807e-05, x1 = 0.0001802
293.15 K | 1.023 | 1.024 | 1.026 | 1.027 | 1.028 | 1.029 | 1.029 | 1.03 | 1.03 | 1.03
298.15 K | 0.916 | 0.919 | 0.92 | 0.921 | 0.922 | 0.922 | 0.923 | 0.924 | 0.924 | 0.925
303.15 K | 0.8 | 0.801 | 0.802 | 0.802 | 0.803 | 0.803 | 0.803 | 0.803 | 0.804 | 0.804
308.15 K | 0.72 | 0.721 | 0.722 | 0.723 | 0.724 | 0.724 | 0.724 | 0.725 | 0.725 | 0.725
313.15 K | 0.654 | 0.655 | 0.656 | 0.657 | 0.657 | 0.657 | 0.657 | 0.657 | 0.657 | 0.658
318.15 K | 0.6 | 0.601 | 0.601 | 0.601 | 0.602 | 0.602 | 0.602 | 0.602 | 0.602 | 0.603
